Paper PMC9867533, “A New Anticancer Semisynthetic Theobromine Derivative Targeting EGFR Protein: CADDD Study” (Life, 2023)

Biological target: EGFR^WT (Homo sapiens, UniProt P00533)
Assay: in vitro EGFR kinase inhibition assay (human EGFR ELISA kit)
Assay type: biochemical

Chain of EGFR^WT (P00533 25-1210): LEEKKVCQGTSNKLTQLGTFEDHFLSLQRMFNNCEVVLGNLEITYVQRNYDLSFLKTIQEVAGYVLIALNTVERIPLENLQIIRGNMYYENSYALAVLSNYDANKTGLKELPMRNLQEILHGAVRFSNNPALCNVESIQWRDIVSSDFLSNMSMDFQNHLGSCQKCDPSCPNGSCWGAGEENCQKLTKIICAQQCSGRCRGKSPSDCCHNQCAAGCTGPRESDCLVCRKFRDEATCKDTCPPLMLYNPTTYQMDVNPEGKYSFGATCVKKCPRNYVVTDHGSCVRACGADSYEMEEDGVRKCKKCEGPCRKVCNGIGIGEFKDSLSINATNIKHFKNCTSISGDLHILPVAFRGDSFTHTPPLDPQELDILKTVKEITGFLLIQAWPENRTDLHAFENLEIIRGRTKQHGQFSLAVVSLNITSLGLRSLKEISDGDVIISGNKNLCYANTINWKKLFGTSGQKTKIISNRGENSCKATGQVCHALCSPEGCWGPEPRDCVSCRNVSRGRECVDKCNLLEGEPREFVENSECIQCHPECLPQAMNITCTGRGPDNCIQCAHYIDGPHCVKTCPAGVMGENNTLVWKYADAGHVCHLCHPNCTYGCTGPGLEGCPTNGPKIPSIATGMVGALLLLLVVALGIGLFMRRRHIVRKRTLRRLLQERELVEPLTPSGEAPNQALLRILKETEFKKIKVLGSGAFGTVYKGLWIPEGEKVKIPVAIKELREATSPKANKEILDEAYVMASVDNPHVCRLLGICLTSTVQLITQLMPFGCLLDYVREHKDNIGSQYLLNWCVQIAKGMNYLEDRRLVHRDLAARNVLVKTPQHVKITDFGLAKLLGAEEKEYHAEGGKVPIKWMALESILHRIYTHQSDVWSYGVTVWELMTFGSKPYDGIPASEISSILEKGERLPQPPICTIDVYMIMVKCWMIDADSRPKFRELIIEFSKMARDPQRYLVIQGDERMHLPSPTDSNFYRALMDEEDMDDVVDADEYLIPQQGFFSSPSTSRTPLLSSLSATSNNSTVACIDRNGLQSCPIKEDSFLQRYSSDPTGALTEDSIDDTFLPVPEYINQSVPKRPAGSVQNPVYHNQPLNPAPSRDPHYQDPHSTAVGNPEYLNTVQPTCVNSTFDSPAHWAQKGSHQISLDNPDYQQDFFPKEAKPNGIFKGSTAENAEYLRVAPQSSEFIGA

- IC50: 25.4 nM
SMILES: Cn1cnc2c1c(=O)n(CC(=O)Nc1ccc(Cl)cc1)c(=O)n2C [T-1-PCPA, N-(4-Chlorophenyl)-2-(3,7-dimethyl-2,6-dioxo-2,3,6,7-tetrahydro-1H-purin-1-yl)acetamide]
